The nature of data set [1]: Human microsome stability assay. The class given is in vitro ADME. To be noted: 1 μM test compound, 0.5 mg/mL liver microsomal protein, 37° C. The protocol:
Human microsome stability assay
The human microsomal stability assay is used for early assessment of metabolic stability of a test compound in human liver microsomes.
Human liver microsomes (Cat.NO.: 452117, Corning, USA;Cat.NO.:H2610, Xenotech, USA) were preincubated with test compound for 10 minutes at 37° C. in 100 mM potassium phosphate buffer, pH 7.4. The reactions were initiated by adding NADPH regenerating system. The final incubation mixtures contained 1 μM test compound, 0.5 mg/mL liver microsomal protein, 1 mM MgCl2, 1 mM NADP, 1 unit/mL isocitric dehydrogenase and 6 mM isocitric acid in 100 mM potassium phosphate buffer, pH 7.4. After incubation times of 0, 3, 6, 9, 15 and 30 minutes at 37° C., 300 μL of cold acetonitrile (including internal standard) was added to 100 μL incubation mixture to terminate the reaction. Following precipitation and centrifugation, the amount of compound remaining in the samples were determined by LC-MS/MS. Controls of no NADPH regenerating system at zero and 30 minutes were also prepared and analyzed.

In the next data set the target is T1, hTLR9 (Homo sapiens, UniProt Q9NR96).
T1 sequence (Q9NR96 26-1032): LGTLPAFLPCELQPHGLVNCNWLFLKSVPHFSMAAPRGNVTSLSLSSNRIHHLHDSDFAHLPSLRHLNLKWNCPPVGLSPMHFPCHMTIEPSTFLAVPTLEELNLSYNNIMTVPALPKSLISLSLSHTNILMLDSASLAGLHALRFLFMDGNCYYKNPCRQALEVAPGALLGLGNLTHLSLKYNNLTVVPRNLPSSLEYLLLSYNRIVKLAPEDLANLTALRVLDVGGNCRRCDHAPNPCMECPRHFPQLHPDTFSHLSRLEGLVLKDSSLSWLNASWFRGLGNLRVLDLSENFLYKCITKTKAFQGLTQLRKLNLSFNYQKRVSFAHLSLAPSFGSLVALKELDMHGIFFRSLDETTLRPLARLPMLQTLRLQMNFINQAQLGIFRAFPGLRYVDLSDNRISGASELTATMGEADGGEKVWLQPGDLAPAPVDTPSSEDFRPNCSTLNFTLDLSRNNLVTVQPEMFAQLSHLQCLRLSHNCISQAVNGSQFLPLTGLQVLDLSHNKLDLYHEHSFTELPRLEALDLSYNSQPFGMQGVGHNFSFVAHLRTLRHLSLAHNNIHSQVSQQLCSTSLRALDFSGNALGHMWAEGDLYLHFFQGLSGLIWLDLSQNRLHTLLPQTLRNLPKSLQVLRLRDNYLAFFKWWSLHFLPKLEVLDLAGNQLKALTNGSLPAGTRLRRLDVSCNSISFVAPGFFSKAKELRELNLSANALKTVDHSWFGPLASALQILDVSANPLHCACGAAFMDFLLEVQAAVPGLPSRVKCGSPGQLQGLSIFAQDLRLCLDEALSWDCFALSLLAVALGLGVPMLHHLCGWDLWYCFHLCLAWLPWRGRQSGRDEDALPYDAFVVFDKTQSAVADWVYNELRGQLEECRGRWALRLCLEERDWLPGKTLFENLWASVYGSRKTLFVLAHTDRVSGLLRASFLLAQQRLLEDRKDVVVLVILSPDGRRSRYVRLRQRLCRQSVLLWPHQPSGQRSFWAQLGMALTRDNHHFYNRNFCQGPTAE
The data set can be described thus: HEK293-Blue-hTLR-9 cells assay. Format: cell-based. More on the design: host or cells: HEK293-Blue-hTLR-9 (HEK293). The settings on record: HEK293-Blue-hTLR9 cells, ODN2006 stimulation, 20 hrs, SEAP reporter; read-out: HEK/hTLR9 IC50. The method, then:
The following tests were carried out in order to determine the activity of the compounds of formula (I) and (Ia) in HEK293-Blue-hTLR-7/8/9 cells assay.
HEK293-Blue-hTLR-9 cells assay:
A stable HEK293-Blue-hTLR-9 cell line was purchased from InvivoGen (Cat. #: hkb-htlr9, San Diego, Calif., USA). These cells were originally designed for studying the stimulation of human TLR9 by monitoring the activation of NE-KB. A SEAP (secreted embryonic alkaline phosphatase) reporter gene was placed under the control of the IFN-β minimal promoter fused to five NE-κB and AP-1-binding sites. The SEAP was induced by activating NE-κB and AP-1 via stimulating HEK-Blue hTLR9 cells with TLR9 ligands. Therefore the reporter expression was declined by TLR9 antagonist under the stimulation of a ligand, such as ODN2006 (Cat. #: tlrl-2006-1, Invivogen, San Diego, Calif., USA), for incubation of 20 hrs. The cell culture supernatant SEAP reporter activity was determined using QUANTI-Blue™ kit (Cat. #: rep-qb1, Invivogen, San Diego, Calif., USA) at a wavelength of 640 nm, a detection medium that turns purple or blue in the presence of alkaline phosphatase.
HEK293-Blue-hTLR9 cells were incubated at a density of 250,000˜450,000 cells/mL in a volume of 170 μL in a 96-well plate in Dulbecco's Modified Eagle's medium (DMEM) containing 4.5 g/L glucose, 50 U/mL penicillin, […], […], 2 mM L-glutamine, 10% (v/v) heat-inactivated fetal bovine serum with addition of 20 μL test compound in a serial dilution in the presence of final DMSO at 1% and 10 μL of 20 uM ODN2006 in above DMEM, perform incubation under 37° C. in a CO2 incubator for 20 hrs. Then 20 μL of the supernatant from each well was incubated with 180 μL Quanti-blue substrate solution at 37° C. for 2 h and the absorbance was read at 620˜655 nm using a spectrophotometer. The signaling pathway that TLR9 activation leads to downstream NE-κB activation has been widely accepted, and therefore similar reporter assay was modified for evaluating TLR9 antagonist.

Consider `Cc1cc(N2CC(N(C)C[C@H]3CN(c4ccc(C#N)c5ncccc45)C[C@@H](C)O3)C2)cc(CO)n1` [Example 37], for which the “Clearance of Human microsome” value in data set [1] was 6.15 mL/min/kg. The IC50 on hTLR9 was 160 nM.
Regarding `C[C@@H]1CN(c2ccc(C#N)c3ncccc23)C[C@H](CNC2CCN(c3ccnc(N)c3)CC2)O1` [Example 20, 5-[(2S,6R)-2-[[[1-(2-amino-4-pyridyl)-4-piperidyl]amino]methyl]-6-methyl-morpholin-4-yl]quinoline-8-carbonitrile], the “Clearance of Human microsome” value in data set [1] was 6.15 mL/min/kg. Besides, at hTLR9, the IC50 worked out at 36 nM.
The corresponding values for `Cc1cc(NC2CCN(C[C@H]3CN(c4ccc(C#N)c5ncccc45)C[C@@H](C)O3)CC2)cc(CO)n1` [Example 5] are 7.47 mL/min/kg and 32 nM.
The corresponding values for `Cc1cc(N2CC(NC[C@H]3CN(c4ccc(C#N)c5ncccc45)C[C@@H](C)O3)C2)cc(CO)n1` [Example 30] are 7.14 mL/min/kg and 88 nM.
For `Cc1cc(N2CCC3(CN(C[C@H]4CN(c5ccc(C#N)c6ncccc56)C[C@@H](C)O4)C3)C2)cc(C)n1` [Example 9], the “Clearance of Human microsome” value in data set [1] is given as 6.15 mL/min/kg. In addition, the IC50 at hTLR9 amounted to 32 nM.
On to `Cc1cc(N2CCN(C[C@H]3CN(c4ccc(C#N)c5ncccc45)C[C@@H](C)O3)CC2)cc(CO)n1` [Example 50], for which the “Clearance of Human microsome” value in data set [1] is given as 7.72 mL/min/kg. The IC50 at hTLR9 stood at 134 nM.
With `CC(O)c1cc(N2CC3(CN(C[C@H]4CN(c5ccc(C#N)c6ncccc56)C[C@@H](C)O4)C3)C2)ccn1` (stereo partly drawn) [Example 46, 5-[(2S,6R)-2-[[2-[2-(1-hydroxyethyl)-4-pyridyl]-2,6-diazaspiro[3.3]heptan-6-yl]methyl]-6-methyl-morpholin-4-yl]quinoline-8-carbonitrile], the “Clearance of Human microsome” value in data set [1] was determined as 7.66 mL/min/kg. Further, the IC50 on hTLR9 was under 32 nM.
`Cc1cc(N2CC[C@@H](NC[C@H]3CN(c4ccc(C#N)c5ncccc45)C[C@@H](C)O3)C2)cc(CO)n1` [Example 28]: the “Clearance of Human microsome” value in data set [1] was 6.25 mL/min/kg. For the same compound, the IC50 on hTLR9 is 57 nM.
The corresponding values for `Cc1cc(N2CCN(C[C@H]3CN(c4ccc(C#N)c5ncccc45)C[C@@H](C)O3)[C@@H](C)C2)cc(CO)n1` [Example 4A] are 6.15 mL/min/kg and 148 nM.
In the case of `Cc1cc(N2CCN(C[C@H]3CN(c4ccc(C#N)c5ncccc45)C[C@@H](C)O3)CC2)cc(N)n1` [Example 40, 5-[(2S,6R)-2-[[4-(2-amino-6-methyl-4-pyridyl)piperazin-1-yl]methyl]-6-methyl-morpholin-4-yl]quinoline-8-carbonitrile], the “Clearance of Human microsome” value in data set [1] is listed as 6.15 mL/min/kg. Moreover, the IC50 on hTLR9 came to 41 nM.
The corresponding values for `Cc1cc(N2CC3(CN(C[C@H]4CN(c5ccc(C#N)c6ncccc56)C[C@@H](C)O4)C3)C2)cc(C(C)O)n1` (stereo partly drawn) [Example 44, 5-[(2S,6R)-2-[[2-[2-(1-hydroxyethyl)-6-methyl-4-pyridyl]-2,6-diazaspiro[3.3]heptan-6-yl]methyl]-6-methyl-morpholin-4-yl]quinoline-8-carbonitrile] are 7.21 mL/min/kg and under 32 nM.
In the case of `C[C@@H]1CN(c2ccc(C#N)c3ncccc23)C[C@H](CN2CC3(C2)CN(c2ccnc(C(C)(C)O)c2)C3)O1` [Example 48, 5-[(2S,6R)-2[[2-[2-(1-hydroxy-1-methyl-ethyl)-4-pyridyl]-2,6-diazaspiro[3.3]heptan-6-yl]methyl]-6-methyl-morpholin-4-yl]quinoline-8-carbonitrile], in data set [1], the “Clearance of Human microsome” value turned out to be 6.87 mL/min/kg. The IC50 at hTLR9 stood at 148 nM.
Take `Cc1cc(NC2CN(C[C@H]3CN(c4ccc(C#N)c5ncccc45)C[C@@H](C)O3)C2)cc(C)n1` [Example 7]: the “Clearance of Human microsome” value in data set [1] is listed as 6.15 mL/min/kg. The IC50 on hTLR9 came to 39 nM.
As to `C[C@@H]1CN(c2ccc(C#N)c3ncccc23)C[C@H](CN2CC3(C2)CN(c2ccnc(C4CC4)c2)C3)O1` [Example 49, 5-[(2S,6R)-2[[2-(2-cyclopropyl-4-pyridyl)-2,6-diazaspiro[3.3]heptan-6-yl]methyl]-6-methyl-morpholin-4-yl]quinoline-8-carbonitrile], the “Clearance of Human microsome” value in data set [1] is recorded as 6.39 mL/min/kg. Also, on hTLR9, the IC50 came to 34 nM.
The corresponding values for `Cc1cc(NC2CCN(C[C@H]3CN(c4ccc(C#N)c5ncccc45)C[C@@H](C)O3)C2)cc(CO)n1` (stereo partly drawn) [Example 6] are 6.15 mL/min/kg and 41 nM.

(Values after patent US20210269451A1, “PYRIDINYL HETEROCYCLYL COMPOUNDS FOR THE TREATMENT OF AUTOIMMUNE DISEASE” (Hoffmann-La Roche Inc., priority 2018, published 2021).)
